Values of other authors, collected in patent publication US20160318862A1, “SYNTHESIS OF DELTA 12-PGJ3 AND RELATED COMPOUNDS” (WILLIAM MARSH RICE UNIVERSITY, priority 2013, published 2016).
Read-outs that look alike come from different tables or passages of the source.

How the values were obtained:
[1] = target: T1, peroxisome proliferator-activated receptor γ (PPARγ) (Homo sapiens, UniProt P37231)
T1 sequence (P37231 1-505): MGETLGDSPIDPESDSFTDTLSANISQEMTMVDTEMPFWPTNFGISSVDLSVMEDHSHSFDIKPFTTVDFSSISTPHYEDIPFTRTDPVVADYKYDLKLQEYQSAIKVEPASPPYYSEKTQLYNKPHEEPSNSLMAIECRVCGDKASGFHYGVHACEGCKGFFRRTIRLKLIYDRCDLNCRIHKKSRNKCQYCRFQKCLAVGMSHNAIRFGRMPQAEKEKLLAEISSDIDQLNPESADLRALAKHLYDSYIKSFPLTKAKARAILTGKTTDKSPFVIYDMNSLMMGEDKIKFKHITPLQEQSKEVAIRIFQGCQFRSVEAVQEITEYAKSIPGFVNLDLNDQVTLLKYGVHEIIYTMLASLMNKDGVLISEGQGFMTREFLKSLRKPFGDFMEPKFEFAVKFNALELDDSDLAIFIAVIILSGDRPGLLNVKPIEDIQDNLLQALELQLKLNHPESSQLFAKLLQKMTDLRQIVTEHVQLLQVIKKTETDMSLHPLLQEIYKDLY

[2] = test system: normal hematopoietic stem cells
[3] = test system: NF-κB-mediated transcription
[4] = test system: tumor cells; conditions: incorporating into tumor cells and transferring into nuclei
[5] = test system: gadd45 promoter
[6] = test system: topoisomerase
[7] = test system: AML LSCs; conditions: murine models of AML; reported in U.S. Patent Publication 2013/0005737
[8] = test system: leukemia stem cells (LSCs)
[9] = test system: mice infected with Friend erythroleukemia virus or those expressing chronic myelogenous leukemia (CML) oncoprotein BCR-abl in the hematopoietic stem cell (HSC) …
[10] = test system: p53; conditions: LSCs and leukemia cells
[11] = test system: AML LSCs; conditions: human AML leukemia samples; reported in U.S. Patent Publication 2013/0005737

CCCCC/C=C/C=C1/C(=O)C=C[C@@H]1C/C=C\CCCC(=O)O [15-deoxy-Δ^12,14-PGJ2]
ligand potency for PPARγ [1]: most potent natural ligand reported to date

CC/C=C\C[C@H](O)/C=C/[C@H]1C(=O)C=C[C@@H]1C/C=C\CCCC(=O)O [PGJ3]
effect on normal hematopoietic stem cells or the differentiation of hematopoietic progenitors [2]: no effect

O=C(O)CCCC=CCC1C=CC(=O)C1=CCC(O)CC=CCC(F)(F)F (stereo not shown) [compound 3, ω-Trifluoromethyl-Δ^12-PGJ3]
NF-κB-mediated transcription [3]: Inhibition of the NF-κB-mediated transcription

CCCCC[C@H](O)C/C=C1/C(=O)C=C[C@@H]1C/C=C\CCCC(=O)O [Δ^12-PGJ2]
antitumor effects [4]: strong antitumor effects
gadd45 promoter activity [5]: activating the gadd45 promoter independently of p53
topoisomerase activity [6]: inhibiting topoisomerase

CC/C=C\C[C@H](O)C/C=C1/C(=O)C=C[C@@H]1C/C=C\CCCC(=O)O [Δ^12-PGJ3]
targeting of AML LSCs by inducing apoptosis [7]: effectively target AML LSCs by inducing apoptosis
eradication of LSCs ([8]; in vivo, donor cells from treated mice unable to cause leukemia in secondary transplants): completely eradicated LSCs in vivo
apoptosis of leukemia stem cells ([8]; mice spleen and bone marrow): selectively targets and induces apoptosis of leukemia stem cells
hematological parameters, splenic histology and survival ([9]; intraperitoneal administration): completely restored normal hematological parameters, splenic histology, and enhanced the survival
development of leukemia ([9]; two murine models of leukemia): alleviates the development of leukemia
expression of p53 [10]: inducing the expression of p53
targeting of AML LSCs by inducing apoptosis [11]: effectively target AML LSCs by inducing apoptosis
